Measurements from patent publication US8278306B2 (Vertex Pharmaceuticals Incorporated, priority 2006, dated 2012).

Molecular target: T1, ROCK I (AA 6-553) (Homo sapiens, UniProt Q13464)
T1 construct: ROCK I (AA 6-553)
Assay: ROCK inhibition assay, standard coupled enzyme system
Assay type: biochemical
Details: 45 nM ROCK I, 45 μM ATP, 200 μM peptide, 30° C.
Experimental: Reactions were carried out in a solution containing 100 mM HEPES (pH 7.5), 10 mM MgCl2, 25 mM NaCl, 2 mM DTT and 1.5% DMSO.

T1 sequence (Q13464 6-553, species assumed): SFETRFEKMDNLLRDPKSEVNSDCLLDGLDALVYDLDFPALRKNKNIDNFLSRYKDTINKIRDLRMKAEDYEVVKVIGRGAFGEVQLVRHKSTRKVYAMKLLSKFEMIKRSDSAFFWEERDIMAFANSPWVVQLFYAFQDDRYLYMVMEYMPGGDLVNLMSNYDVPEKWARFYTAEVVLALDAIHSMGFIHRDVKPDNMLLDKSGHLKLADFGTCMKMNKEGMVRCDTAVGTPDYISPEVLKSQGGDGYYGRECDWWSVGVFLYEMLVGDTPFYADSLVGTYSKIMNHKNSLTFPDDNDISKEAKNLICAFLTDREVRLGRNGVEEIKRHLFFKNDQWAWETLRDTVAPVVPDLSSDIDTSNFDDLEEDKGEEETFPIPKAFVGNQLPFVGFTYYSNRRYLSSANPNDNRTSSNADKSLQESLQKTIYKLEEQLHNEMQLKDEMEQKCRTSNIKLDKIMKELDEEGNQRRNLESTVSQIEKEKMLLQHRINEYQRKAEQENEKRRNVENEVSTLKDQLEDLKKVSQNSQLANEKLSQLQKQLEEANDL

Compound: O=C(Cc1ccc(F)cc1)Nc1nc(-c2ccnc(Cl)c2)cs1 [Compound 2]
- Ki: 0.1 to 1 µM

Compound: COc1cc(-c2csc(NC(=O)Cc3ccc(F)cc3)n2)ccn1 [Compound 4]
- Ki: > 1 µM

Compound: CCOc1cc(-c2csc(NC(=O)Cc3cccc(OC)c3)n2)ccn1 [Compound 5]
- Ki: > 1 µM

Compound: CCOc1cc(-c2csc(NC(=O)Cc3cc4c(cc3Cl)OCO4)n2)ccn1 [Compound 6]
- Ki: > 1 µM

Compound: CCOc1cc(-c2csc(NC(=O)Cc3ccc(F)cc3)n2)ccn1 [Compound 7]
- Ki: > 1 µM

Compound: CCOc1cc(-c2csc(NC(=O)Cc3ccccc3Cl)n2)ccn1 [Compound 8]
- Ki: > 1 µM

Compound: O=C(Cc1ccccc1Cl)Nc1nc(-c2ccnc(Cl)c2)cs1 [Compound 10]
- Ki: 0.1 to 1 µM

Compound: CN(C)c1cc(-c2csc(NC(=O)Cc3ccccc3Cl)n2)ccn1 [Compound 11]
- Ki: > 1 µM

Compound: CN(C)c1cc(-c2csc(NC(=O)Cc3cc4c(cc3Cl)OCO4)n2)ccn1 [Compound 12]
- Ki: > 1 µM

Compound: COc1cccc(CC(=O)Nc2nc(-c3ccnc(NCc4ccccc4)c3)cs2)c1 [Compound 14]
- Ki: > 1 µM

Compound: CCNc1cc(-c2csc(NC(=O)Cc3cccc(OC)c3)n2)ccn1 [Compound 15]
- Ki: 0.1 to 1 µM

Compound: Nc1cc(-c2csc(NC(=O)Cc3ccc(F)cc3F)n2)ccn1 [Compound 16]
- Ki: < 0.1 µM

Compound: Nc1cc(-c2csc(NC(=O)Cc3cc4c(cc3Cl)OCO4)n2)ccn1 [Compound 17]
- Ki: < 0.1 µM

Compound: CCNc1cc(-c2csc(NC(=O)Cc3ccc(F)cc3F)n2)ccn1 [Compound 21]
- Ki: 0.1 to 1 µM

Compound: CCNc1cc(-c2csc(NC(=O)Cc3cc4c(cc3Cl)OCO4)n2)ccn1 [Compound 22]
- Ki: 0.1 to 1 µM

Compound: CNc1cc(-c2csc(NC(=O)Cc3ccc(F)cc3F)n2)ccn1 [Compound 23]
- Ki: 0.1 to 1 µM

Compound: Nc1cc(-c2csc(NC(=O)Cc3cccc(OCCCCl)c3)n2)ccn1 [Compound 24]
- Ki: 0.1 to 1 µM

Compound: O=C(Cc1ccc(F)cc1F)Nc1nc(-c2ccnc(NCc3ccccc3)c2)cs1 [Compound 25]
- Ki: 0.1 to 1 µM

Compound: O=C(Cc1cc2c(cc1Cl)OCO2)Nc1nc(-c2ccnc(NCc3ccccc3)c2)cs1 [Compound 26]
- Ki: 0.1 to 1 µM

Compound: Nc1cc(-c2csc(NC(=O)Cc3ccccc3Cl)n2)ccn1 [Compound 27]
- Ki: < 0.1 µM

Compound: CNc1cc(-c2csc(NC(=O)Cc3ccccc3Cl)n2)ccn1 [Compound 28]
- Ki: 0.1 to 1 µM

Compound: CCNc1cc(-c2csc(NC(=O)Cc3ccccc3Cl)n2)ccn1 [Compound 29]
- Ki: 0.1 to 1 µM

Compound: Cc1cc(-c2csc(NC(=O)Cc3ccc(F)cc3F)n2)ccn1 [Compound 30]
- Ki: 0.1 to 1 µM

Compound: Cc1cc(-c2csc(NC(=O)Cc3cc4c(cc3Cl)OCO4)n2)ccn1 [Compound 32]
- Ki: < 0.1 µM

Compound: Cc1cc(-c2csc(NC(=O)Cc3ccccc3Cl)n2)ccn1 [Compound 33]
- Ki: 0.1 to 1 µM

Compound: Nc1cc(-c2csc(NC(=O)Cc3cccc(O)c3)n2)ccn1 [Compound 34]
- Ki: < 0.1 µM

Compound: Nc1cc(-c2csc(NC(=O)Cc3ccccc3F)n2)ccn1 [Compound 35]
- Ki: < 0.1 µM

Compound: Cc1cc(-c2csc(NC(=O)Cc3ccccc3)n2)ccn1 [Compound 36]
- Ki: 0.1 to 1 µM

Compound: Cc1cc(-c2csc(NC(=O)Cc3cccc(O)c3)n2)ccn1 [Compound 37]
- Ki: < 0.1 µM

Compound: Cc1cc(-c2csc(NC(=O)Cc3ccccc3F)n2)ccn1 [Compound 38]
- Ki: 0.1 to 1 µM

Compound: Cc1cc(-c2csc(NC(=O)Cc3cccc(OCCCN4CCN(C)CC4)c3)n2)ccn1 [Compound 39]
- Ki: 0.1 to 1 µM

Compound: Cc1cc(-c2csc(NC(=O)Cc3ccc(F)cc3)n2)ccn1 [Compound 40]
- Ki: 0.1 to 1 µM

Compound: Nc1cc(-c2csc(NC(=O)Cc3ccccc3)n2)ccn1 [Compound 41]
- Ki: < 0.1 µM

Compound: Nc1cc(-c2csc(NC(=O)Cc3ccc(F)cc3)n2)ccn1 [Compound 42]
- Ki: 0.1 to 1 µM

Compound: CS(=O)(=O)Nc1ccc(CC(=O)Nc2nc(-c3ccnc(N)c3)cs2)cc1 [Compound 43]
- Ki: 0.1 to 1 µM

Compound: Cc1cc(-c2csc(NC(=O)Cc3ccc(NS(C)(=O)=O)cc3)n2)ccn1 [Compound 44]
- Ki: 0.1 to 1 µM

Compound: CN1CCN(CCCOc2cccc(CC(=O)Nc3nc(-c4ccnc(N)c4)cs3)c2)CC1 [Compound 45]
- Ki: < 0.1 µM

Compound: O=C(Cc1ccccc1F)Nc1nc(-c2ccnc(Cl)c2)cs1 [Compound 46]
- Ki: 0.1 to 1 µM

Compound: O=C(Cc1ccc(F)cc1F)Nc1nc(-c2ccnc(Cl)c2)cs1 [Compound 47]
- Ki: 0.1 to 1 µM

Compound: O=C(Cc1cccc(O)c1)Nc1nc(-c2ccnc(Cl)c2)cs1 [Compound 48]
- Ki: < 0.1 µM

Compound: O=C(Cc1cc2c(cc1Cl)OCO2)Nc1nc(-c2ccnc(Cl)c2)cs1 [Compound 49]
- Ki: < 0.1 µM

Compound: O=C(Cc1ccccc1)Nc1nc(-c2ccnc(Cl)c2)cs1 [Compound 50]
- Ki: 0.1 to 1 µM

Compound: CS(=O)(=O)Nc1cccc(CC(=O)Nc2nc(-c3ccnc(Cl)c3)cs2)c1 [Compound 51]
- Ki: 0.1 to 1 µM

Compound: Nc1cc(-c2csc(NC(=O)Cc3cccc(OCCCN4CCNCC4)c3)n2)ccn1 [Compound 52]
- Ki: < 0.1 µM

Compound: CN1CCN(CCCOc2cccc(CC(=O)Nc3nc(-c4ccnc(Cl)c4)cs3)c2)CC1 [Compound 53]
- Ki: < 0.1 µM

Compound: CCN1CCN(CCCOc2cccc(CC(=O)Nc3nc(-c4ccnc(Cl)c4)cs3)c2)CC1 [Compound 54]
- Ki: < 0.1 µM

Compound: O=C(Cc1cccc(OCCCN2CCNCC2)c1)Nc1nc(-c2ccnc(Cl)c2)cs1 [Compound 55]
- Ki: < 0.1 µM

Compound: O=C(Cc1ccccc1F)Nc1nc(-c2ccnc(F)c2)cs1 [Compound 56]
- Ki: < 0.1 µM

Compound: O=C(Cc1ccc(F)cc1)Nc1nc(-c2ccnc(F)c2)cs1 [Compound 57]
- Ki: 0.1 to 1 µM

Compound: O=C(Cc1ccc(F)cc1F)Nc1nc(-c2ccnc(F)c2)cs1 [Compound 58]
- Ki: < 0.1 µM

Compound: CS(=O)(=O)Nc1cccc(CC(=O)Nc2nc(-c3ccnc(F)c3)cs2)c1 [Compound 59]
- Ki: < 0.1 µM

Compound: CN1CCN(CCCOc2cccc(CC(=O)Nc3nc(-c4ccnc(F)c4)cs3)c2)CC1 [Compound 60]
- Ki: < 0.1 µM

Compound: O=C(Cc1ccccc1)Nc1cc(-c2ccnc(F)c2)cs1 [Compound 66]
- Ki: < 0.1 µM

Compound: O=C(Cc1ccc(F)cc1)Nc1cc(-c2ccnc(F)c2)cs1 [Compound 67]
- Ki: < 0.1 µM

Compound: CS(=O)(=O)Nc1ccc(F)c(CC(=O)Nc2cc(-c3ccnc(F)c3)cs2)c1 [Compound 68]
- Ki: < 0.1 µM

Compound: O=C(Cc1ccc(F)cc1F)Nc1cc(-c2ccnc(F)c2)cs1 [Compound 69]
- Ki: < 0.1 µM

Compound: CCN(CC)S(=O)(=O)c1cccc(CC(=O)Nc2cc(-c3ccnc(F)c3)cs2)c1 [Compound 70]
- Ki: < 0.1 µM

Compound: O=C(Cc1cccc(S(=O)(=O)N2CCOCC2)c1)Nc1cc(-c2ccnc(F)c2)cs1 [Compound 71]
- Ki: 0.1 to 1 µM

Compound: CS(=O)(=O)Nc1ccc(F)c(CC(=O)Nc2cc(-c3ccnc(N)c3)cs2)c1 [Compound 76]
- Ki: < 0.1 µM

Compound: CN(C)S(=O)(=O)c1cccc(CC(=O)Nc2cc(-c3ccnc(F)c3)cs2)c1 [Compound 78]
- Ki: 0.1 to 1 µM

Compound: CN(C)S(=O)(=O)c1cccc(CC(=O)Nc2cc(-c3ccnc(N)c3)cs2)c1 [Compound 79]
- Ki: 0.1 to 1 µM

Compound: Cc1cc(-c2csc(NC(=O)Cc3ccccc3F)c2)ccn1 [Compound 81]
- Ki: 0.1 to 1 µM

Compound: Cc1cc(-c2csc(NC(=O)Cc3cccc(NS(C)(=O)=O)c3)c2)ccn1 [Compound 82]
- Ki: 0.1 to 1 µM

Compound: Cc1cc(-c2csc(NC(=O)Cc3cccc(S(=O)(=O)N(C)C)c3)c2)ccn1 [Compound 83]
- Ki: > 1 µM

Compound: Cc1cc(-c2csc(NC(=O)Cc3cccc(NS(=O)(=O)N(C)C)c3)c2)ccn1 [Compound 84]
- Ki: 0.1 to 1 µM

Compound: Cc1cc(-c2csc(NC(=O)Cc3cc(NS(C)(=O)=O)ccc3F)c2)ccn1 [Compound 86]
- Ki: < 0.1 µM

Compound: Cc1cc(-c2csc(NC(=O)Cc3ccccc3)c2)ccn1 [Compound 87]
- Ki: 0.1 to 1 µM

Compound: O=C(Cc1cccc(O)c1)Nc1cc(-c2ccnc(F)c2)cs1 [Compound 88]
- Ki: < 0.1 µM

Compound: O=C(Cc1ccc(OCCN2CCNCC2)cc1Cl)Nc1cc(-c2ccnc(Cl)c2)cs1 [Compound 95]
- Ki: < 0.1 µM

Compound: CN1CCN(CCOc2ccc(CC(=O)Nc3cc(-c4ccnc(Cl)c4)cs3)c(Cl)c2)CC1 [Compound 96]
- Ki: < 0.1 µM

Compound: O=C(Cc1ccc(OCCCN2CCNCC2)cc1Cl)Nc1cc(-c2ccnc(Cl)c2)cs1 [Compound 97]
- Ki: < 0.1 µM

Compound: CN1CCN(CCCOc2ccc(CC(=O)Nc3cc(-c4ccnc(Cl)c4)cs3)c(Cl)c2)CC1 [Compound 98]
- Ki: < 0.1 µM

Compound: O=C(Cc1ccc(OCCCC2CCNCC2)cc1)Nc1cc(-c2ccnc(Cl)c2)cs1 [Compound 99]
- Ki: < 0.1 µM

Compound: CS(=O)(=O)Nc1ccc(F)c(CC(=O)Nc2cc(-c3ccnc(Cl)c3)cs2)c1 [Compound 100]
- Ki: < 0.1 µM

Compound: NCCC(C(=O)Nc1cc(-c2ccnc(Cl)c2)cs1)c1ccc(F)cc1F (stereo not shown) [Compound 104]
- Ki: 0.1 to 1 µM

Compound: CN1CCN(CCOc2cccc(CC(=O)Nc3cc(-c4ccnc(N)c4)cs3)c2)CC1 [Compound 106]
- Ki: < 0.1 µM
